What all share (format): biochemical
The target in one assay is T1, human factor XIa (Homo sapiens, UniProt P03951).
T1 construct: purchased Kordia
Briefly: Measurement of FXIa inhibition (fluorogenic peptide substrate Boc-Glu(OBzl)-Ala-Arg-AMC). To be noted: factor XIa from Kordia, 15 min preincubation, 30 min at 22° C., fluorescence.

A further assay deals with human and animal plasma. In words: Determination of anticoagulatory activity: activated partial thromboplastin time (aPTT) in plasma. To be noted: concentration of test substance which brings about a 1.5-fold extension of the aPTT, 37° C., C.K. Prest kit. The essentials:
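Citrated human or animal plasma (e.g. mouse, rat, rabbit, pig, dog) preincubated 3 min at 37 °C with test substance and cephalin/kaolin PTT reagent. Value is the concentration giving a 1.5-fold aPTT extension.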

The next assay concerns the target T2, human plasmin (Homo sapiens, UniProt P00747).
T2 construct: purchased Kordia
Briefly: Measurement of plasmin inhibition (fluorogenic peptide substrate MeOSuc-Ala-Phe-Lys-AMC). The note with it: plasmin from Kordia, 15 min preincubation, 30 min at 22° C., fluorescence. As for the experimental part: The plasmin inhibition of the inventive substances is determined using a biochemical test system which utilizes the reaction of a peptidic plasmin substrate to determine the enzymatic activity of human plasmin. Here, plasmin cleaves from the peptic plasmin substrate the C-terminal aminomethylcoumarin (AMC), the fluorescence of which is measured. The determinations are carried out in microtitre plates.
Test substances are dissolved in dimethyl sulphoxide and serially diluted in dimethyl sulphoxide (3000 μM to 0.0078 μM; resulting final concentrations in the test: 50 μM to 0.00013 μM). In each case 1 μl of the diluted substance solutions is placed into the wells of white microtitre plates from Greiner (384 wells). […] After 15 min of incubation, the enzyme reaction is started by addition of 20 μl of the plasmin substrate MeOSuc-Ala-Phe-Lys-AMC dissolved in assay buffer (150 μM in assay buffer) from Bachem, the mixture is incubated at room temperature (22° C.) for 30 min and fluorescence is then measured (excitation: 360 nm, emission: 460 nm). The measured emissions of the test batches with test substance are compared to those of control batches without test substance (only dimethyl sulphoxide instead of test substance in dimethyl sulphoxide), and IC50 values are calculated from the concentration/activity relationships.

Where a name gives a salt, the structure may show the parent alone.

T1 sequence (P03951 388-625 limits assumed): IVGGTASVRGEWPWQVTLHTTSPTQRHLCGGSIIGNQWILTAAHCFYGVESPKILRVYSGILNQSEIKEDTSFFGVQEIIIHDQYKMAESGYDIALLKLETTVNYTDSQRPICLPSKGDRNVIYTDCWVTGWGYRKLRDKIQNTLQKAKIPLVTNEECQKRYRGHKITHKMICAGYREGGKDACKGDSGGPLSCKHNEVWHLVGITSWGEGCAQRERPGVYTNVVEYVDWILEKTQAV
T1 sequence (P03951 19-387 partner limits assumed): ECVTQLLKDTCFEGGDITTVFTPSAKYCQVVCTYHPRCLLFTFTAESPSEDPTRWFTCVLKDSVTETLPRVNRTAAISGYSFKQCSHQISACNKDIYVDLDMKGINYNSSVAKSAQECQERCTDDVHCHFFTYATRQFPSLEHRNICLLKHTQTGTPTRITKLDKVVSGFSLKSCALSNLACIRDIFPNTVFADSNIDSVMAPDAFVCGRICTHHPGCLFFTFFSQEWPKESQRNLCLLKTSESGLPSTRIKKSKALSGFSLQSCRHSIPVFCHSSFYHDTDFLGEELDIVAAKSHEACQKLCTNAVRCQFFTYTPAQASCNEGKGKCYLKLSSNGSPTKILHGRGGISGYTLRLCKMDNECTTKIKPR
T2 sequence (P00747 581-810 limits assumed): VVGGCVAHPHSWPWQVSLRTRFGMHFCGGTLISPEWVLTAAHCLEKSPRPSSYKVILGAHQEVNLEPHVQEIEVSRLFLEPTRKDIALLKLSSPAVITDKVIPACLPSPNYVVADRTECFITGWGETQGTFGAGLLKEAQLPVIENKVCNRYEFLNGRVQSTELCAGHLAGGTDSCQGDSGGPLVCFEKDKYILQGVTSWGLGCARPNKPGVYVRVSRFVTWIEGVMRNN
T2 sequence (P00747 97-580 partner limits assumed): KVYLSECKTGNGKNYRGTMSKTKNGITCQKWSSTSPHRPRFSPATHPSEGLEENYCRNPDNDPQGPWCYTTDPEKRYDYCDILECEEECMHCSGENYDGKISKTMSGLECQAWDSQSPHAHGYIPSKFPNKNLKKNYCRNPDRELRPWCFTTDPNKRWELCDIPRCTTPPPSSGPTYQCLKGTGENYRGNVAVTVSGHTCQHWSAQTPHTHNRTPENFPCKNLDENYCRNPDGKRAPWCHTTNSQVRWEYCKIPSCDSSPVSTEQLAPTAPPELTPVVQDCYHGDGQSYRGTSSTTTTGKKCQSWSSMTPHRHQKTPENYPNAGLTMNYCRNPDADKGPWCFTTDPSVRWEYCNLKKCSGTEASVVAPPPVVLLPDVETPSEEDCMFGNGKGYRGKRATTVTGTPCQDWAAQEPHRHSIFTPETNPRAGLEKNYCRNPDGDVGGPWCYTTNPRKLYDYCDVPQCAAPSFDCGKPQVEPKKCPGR

In general, IC50 refers to the point on the concentration scale where inhibition reaches its midpoint. A high value points to lower potency. In the case of `CC1CN(c2ccc(-c3ccc(C[C@H](NC(=O)C4CCC(CN)CC4)C(=O)Nc4ccc(-c5nn[nH]n5)cc4)cc3)cn2)CC(C)O1` (mixture of isomers) [Example 9, N-alpha-{[trans-4-(Aminomethyl)cyclohexyl]carbonyl}-4-{6-[(2RS,6SR)-2,6-dimethylmorpholin-4-yl]pyridin-3-yl}-N-[4-(2H-tetrazol-5-yl)phenyl]-L-phenylalaninamide hydrochloride], the IC50 against human factor XIa came out at 3.6 nM; on human plasmin, 14 nM. Besides, the “aPTT” value in the assay on human and animal plasma turned out to be 0.35 µmol/L.
As for `CN1CCN(c2cc(-c3ccc(C[C@H](NC(=O)C4CCC(CN)CC4)C(=O)Nc4ccc(-c5nnn[nH]5)cc4)cc3)ccn2)CC1` (stereo partly drawn) [Example 53, N-alpha-{[trans-4-(Aminomethyl)cyclohexyl]carbonyl}-4-[2-(4-methylpiperazin-1-yl)pyridin-4-yl]-N-[4-(1H-tetrazol-5-yl)phenyl]-L-phenylalaninamide hydrochloride], 11 nM corresponded to half-maximal inhibition on human factor XIa (IC50). Also, in the assay on human and animal plasma, the “aPTT” value is 0.21 µmol/L.
With `CN1CCN(c2ccc(-c3ccc(C[C@H](NC(=O)C4CCC(CN)CC4)C(=O)Nc4ccc(-c5nnn[nH]5)cc4)cc3)cn2)CC1` (stereo partly drawn) [Example 54, N-alpha-{[trans-4-(Aminomethyl)cyclohexyl]carbonyl}-4-[6-(4-methylpiperazin-1-yl)pyridin-3-yl]-N-[4-(1H-tetrazol-5-yl)phenyl]-L-phenylalaninamide hydrochloride], the midpoint of inhibition on human factor XIa, the IC50, lay at 7.2 nM. Further, the “aPTT” value with human and animal plasma worked out at 0.21 µmol/L.
`Cc1nc(N)ncc1-c1ccc(C[C@H](NC(=O)C2CCC(CN)CC2)C(=O)Nc2ccc(-c3nnn[nH]3)cc2)cc1` (stereo partly drawn) [Example 55, N-alpha-{[trans-4-(Aminomethyl)cyclohexyl]carbonyl}-4-(2-amino-4-methylpyrimidin-5-yl)-N-[4-(1H-tetrazol-5-yl)phenyl]-L-phenylalaninamide hydrochloride] returned an IC50 at human factor XIa of 3 nM. Further, in the assay with human and animal plasma, the “aPTT” value is 0.22 µmol/L.
With `CN(C)CCCOc1ccc(-c2ccc(C[C@H](NC(=O)C3CCC(CN)CC3)C(=O)Nc3ccc(-c4nnc(Cl)[nH]4)cc3)cc2)cn1` (stereo partly drawn) [Example 56, N-alpha-{[trans-4-(Aminomethyl)cyclohexyl]carbonyl}-N-[4-(3-chloro-4H-1,2,4-triazol-5-yl)phenyl]-4-{6-[3-(dimethylamino)propoxy]pyridin-3-yl}-L-phenylalaninamide hydrochloride], half-maximal inhibition on human factor XIa (IC50) required 9.6 nM. Moreover, the “aPTT” value in the assay on human and animal plasma stood at 0.25 µmol/L.
The compound `Cc1ccncc1-c1ccc(C[C@H](NC(=O)C2CCC(CN)CC2)C(=O)Nc2ccc(-c3nn[nH]n3)cc2)cc1` (stereo partly drawn) [Example 57, N-alpha-{[trans-4-(Aminomethyl)cyclohexyl]carbonyl}-4-(4-methylpyridin-3-yl)-N-[4-(2H-tetrazol-5-yl)phenyl]-L-phenylalaninamide hydrochloride] displayed a half-maximal inhibitory concentration (IC50) against human factor XIa of 4.4 nM. Besides, in the assay with human and animal plasma, the “aPTT” value was 0.35 µmol/L.
In the case of `CCOC(=O)c1ccc(-c2ccc(C[C@H](NC(=O)[C@H]3CC[C@H](CN)CC3)C(=O)Nc3ccc(-c4nn[nH]n4)cc3)cc2)c(C)n1` [Example 58, Ethyl 5-{4-[(2S)-2-({[trans-4-(aminomethyl)cyclohexyl]carbonyl}amino)-3-oxo-3-{[4-(2H-tetrazol-5-yl)phenyl]amino}propyl]phenyl}-6-methylpyridin-2-carboxylate hydrochloride], the concentration for half-maximal inhibition (IC50) against human factor XIa came out at 0.8 nM; against human plasmin, 8.6 nM. In the assay with human and animal plasma, the “aPTT” value was 0.34 µmol/L.
Compound `Cl.NC[C@H]1CC[C@H](C(=O)N[C@@H](Cc2ccc(-c3cnc(N4CCOCC4)nc3)cc2)C(=O)Nc2ccc(-c3nc(C(F)(F)C(F)(F)C(=O)O)n[nH]3)cc2)CC1` [Example 59, 3-(5-{4-[(N-{[trans-4-(Aminomethyl)cyclohexyl]carbonyl}-4-[2-(morpholin-4-yl)pyrimidin-5-yl]-L-phenylalanyl)amino]phenyl}-1H-1,2,4-triazol-3-yl)-2,2,3,3-tetrafluoropropanoic acid hydrochloride] came in with an IC50 against human factor XIa of 2.6 nM. In addition, the “aPTT” value in the assay with human and animal plasma was determined as 0.08 µmol/L.
